Laboratory results from US20070117743A1, “New antitumoral compounds” (priority 2003, published 2007).
Where two headings read alike, the source gives them in different places. Where a SMILES comes first, the peptide text is derived from it. Bridges are numbered along the chain shown (N, C = ends). [ ]: non-standard residue; d: D form. The star is where a group is joined. d(aIle) = CC[C@H](C)[C@@H](N)C(=O)O; d(aThr) = C[C@@H](O)[C@@H](N)C(=O)O; Hexanoyl(5-Me) = CC(C)CCCC(=O)*; Orn = NCCC[C@H](N)C(=O)O; Aib = CC(C)(N)C(=O)O

Experiments:
Format in all cases: cell-based, human
HeLa-APL = experiment: SRB colorimetric assay of cell growth and viability, HeLa-APL; settings: 48 hours exposure, SRB; for CC50: read-out: LC50 HELA-APL
SK-MEL-28 = experiment: SRB colorimetric assay of cell growth and viability, SK-MEL-28; settings: 48 hours exposure; for CC50: read-out: LC50 MEL-28
HeLa = experiment: SRB colorimetric assay of cell growth and viability, HeLa; settings: 48 hours exposure, SRB; for CC50: read-out: LC50 HELA
K-562 = experiment: SRB colorimetric assay of cell growth and viability, K-562; settings: 48 hours exposure, SRB; for CC50: read-out: LC50 K-562
A-549 = experiment: SRB colorimetric assay of cell growth and viability, A-549; settings: 48 hours exposure, SRB; for GI50: read-out: GI50 A-549; for CC50: read-out: LC50 A-549
LoVo = experiment: SRB colorimetric assay of cell growth and viability, LoVo; settings: 48 hours exposure, SRB; for CC50: read-out: LC50 LOVO
PANC-1 = experiment: SRB colorimetric assay of cell growth and viability, PANC-1; settings: 48 hours exposure, SRB; for CC50: read-out: LC50 PANC-1
HT-29 = experiment: SRB colorimetric assay of cell growth and viability, HT-29; settings: 48 hours exposure, SRB; for GI50: read-out: GI50 HT-29; for CC50: read-out: LC50 HT-29
IGROV-ET = experiment: SRB colorimetric assay of cell growth and viability, IGROV-ET; settings: 48 hours exposure; for CC50: read-out: LC50 IGROV-ET
SK-BR-3 = experiment: SRB colorimetric assay of cell growth and viability, SK-BR-3; settings: 48 hours exposure
LNCaP = experiment: SRB colorimetric assay of cell growth and viability, LNCaP; settings: 48 hours exposure; for CC50: read-out: LC50 LN-caP; for GI50: read-out: GI50 LN-caP
DU-145 = experiment: SRB colorimetric assay of cell growth and viability, DU-145; settings: 48 hours exposure
LoVo-Dox = experiment: SRB colorimetric assay of cell growth and viability, LoVo-Dox; settings: 48 hours exposure, SRB; for CC50: read-out: LC50 LOVO-DOX
Summary of the method: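 Here, cells grow drug-free for 18 h, then receive sample dilutions from 10 down to 10^−8 μg/mL for 48 h at 37° C. Protein-bound SRB is solubilized in Tris and quantified at 490 nm.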

IGROV-1 = experiment: SRB colorimetric assay of cell growth and viability, IGROV-1; settings: 48 hours exposure

`CC[C@H](C)[C@@H](NC(=O)[C@H](CCCN)NC(=O)[C@H]1CCCN1C(=O)[C@H](NC(=O)[C@@H](NC(=O)[C@@H](NC(=O)[C@H](NC(=O)CCCC(C)C)C(C)C)[C@@H](C)O)C(C)C)C(C)C)C(=O)N[C@H]1C(=O)N[C@H]([C@@H](C)CC)C(=O)N[C@H](C(C)C)C(=O)N[C@@H](Cc2ccccc2)C(=O)NC(C)(C)C(=O)N[C@@H](C(C)C)C(=O)O[C@@H]1C` [Compound 66, [Aib^2]-KF] ({Hexanoyl(5-Me)}-[dV]TV[dV][dP][Orn][d(aIle)][d(aThr)][d(aIle)][dV]F[Aib]V; ester 8-C) was tested, and the GI50 (HeLa-APL) was 3410 nM, the “TGI HELA-APL” value (HeLa-APL) was 6.76E−06 Molar and the CC50 (HeLa-APL) was at least 6.76 µM. For the same compound, the GI50 (SK-MEL-28) was 2240 nM, the “TGI MEL-28” value (SK-MEL-28) was 6.14E−06 Molar and the CC50 (SK-MEL-28; SRB) was at least 6.76 µM. The GI50 (HeLa) was 3170 nM, the “TGI HELA” value (HeLa) was 6.76E−06 Molar and the CC50 (HeLa) was at least 6.76 µM. The GI50 (K-562) was at least 6760 nM, the “TGI K-562” value (K-562) was 6.76E−06 Molar and the CC50 (K-562) was at least 6.76 µM. For the same compound, the “TGI A-549” value (A-549) was 6.76E−06 Molar, the GI50 (A-549) was 4.96 µM and the CC50 (A-549) was at least 6.76 µM. The GI50 (LoVo) was 1300 nM, the “TGI LOVO” value (LoVo) was 2.47E−06 Molar and the CC50 (LoVo) was 4710 nM. The GI50 (PANC-1) was at least 6760 nM, the “TGI PANC-1” value (PANC-1) was 6.76E−06 Molar and the CC50 (PANC-1) was at least 6.76 µM. For the same compound, the “TGI HT-29” value (HT-29) was 2.54E−06 Molar, the GI50 (HT-29) was 1280 nM and the CC50 (HT-29) was 5.06 µM. For the same compound, the GI50 (IGROV-ET) was 1210 nM, the “TGI IGROV-ET” value (IGROV-ET) was 2.43E−06 Molar and the CC50 (IGROV-ET; SRB) was 4.89 µM. For the same compound, the GI50 (SK-BR-3) was 1490 nM, the “TGI SK-BR-3” value (SK-BR-3) was 2.67E−06 Molar and the LC50 (SK-BR-3; SRB) was 4770 nM. The “TGI LN-caP” value (LNCaP) was 6.76E−06 Molar, the CC50 (LNCaP; SRB) was at least 6.76 µM and the GI50 (LNCaP) was 4.63 µM. For the same compound, the GI50 (DU-145) was 1360 nM, the “TGI DU-145” value (DU-145) was 2.73E−06 Molar and the LC50 (concentration causing 50% net cell kill) (DU-145; SRB) was 5.45 µM. For the same compound, the GI50 (LoVo-Dox) was 1070 nM, the “TGI LOVO-DOX” value (LoVo-Dox) was 2.26E−06 Molar and the CC50 (LoVo-Dox) was 4.8 µM. The GI50 (IGROV-1) was 1570 nM, the “TGI IGROV” value (IGROV-1) was 2.82E−06 Molar and the LC50 (concentration causing 50% net cell killing) (IGROV-1; SRB) was 5.05 µM.

In the case of `C/C=C1\NC(=O)[C@H](Cc2ccccc2)NC(=O)[C@@H](C(C)C)NC(=O)[C@@H]([C@@H](C)CC)NC(=O)[C@H](NC(=O)[C@H](NC(=O)[C@H](CCCN)NC(=O)[C@H]2CCCN2C(=O)[C@H](NC(=O)[C@@H](NC(=O)[C@@H](NC(=O)[C@H](NC(=O)CC[C@@H](C)CC)C(C)C)[C@@H](C)OC(=O)C(F)(F)F)C(C)C)C(C)C)[C@@H](C)CC)[C@@H](C)OC(=O)[C@H](C(C)C)NC1=O` [Compound 94, [Thr(OTfa)^12, 4(S)MeHex^14]-Kahalalide F], the GI50 (HeLa-APL) is reported as 693 nM, the “TGI HELA-APL” value (HeLa-APL) is reported as 1.65E−06 Molar and the CC50 (HeLa-APL) is reported as 3.92 µM. The GI50 (SK-MEL-28; SRB) was 743 nM, the “TGI MEL-28” value (SK-MEL-28; SRB) was 1.50E−06 Molar and the CC50 (SK-MEL-28; SRB) was 3.01 µM. The GI50 (HeLa) was 413 nM, the “TGI HELA” value (HeLa) was 1.16E−06 Molar and the CC50 (HeLa) was 3.02 µM. The GI50 (K-562) was 1840 nM, the “TGI K-562” value (K-562) was 3.75E−06 Molar and the CC50 (K-562) was 6.35 µM. For the same compound, the “TGI A-549” value (A-549) was 2.28E−06 Molar, the GI50 (A-549) was 1.12 µM and the CC50 (A-549) was 4.66 µM. For the same compound, the GI50 (LoVo) was 168 nM, the “TGI LOVO” value (LoVo) was 3.26E−07 Molar and the CC50 (LoVo) was 632 nM. For the same compound, the GI50 (PANC-1) was 2860 nM, the “TGI PANC-1” value (PANC-1) was 6.35E−06 Molar and the CC50 (PANC-1) was 6.35 µM. For the same compound, the “TGI HT-29” value (HT-29) was 3.43E−07 Molar, the GI50 (HT-29) was 163 nM and the CC50 (HT-29) was 1.14 µM. The GI50 (IGROV-ET; SRB) was 208 nM, the “TGI IGROV-ET” value (IGROV-ET; SRB) was 4.00E−07 Molar and the CC50 (IGROV-ET; SRB) was 1.58 µM. The GI50 (SK-BR-3; SRB) was 226 nM, the LC50 (SK-BR-3; SRB) was 625 nM and the “TGI SK-BR-3” value (SK-BR-3; SRB) was 3.75E−07 Molar. The “TGI LN-caP” value (LNCaP; SRB) was 4.92E−06 Molar, the GI50 (LNCaP; SRB) was 1.65 µM and the CC50 (LNCaP; SRB) was 6.35 µM. For the same compound, the GI50 (DU-145; SRB) was 718 nM, the LC50 (concentration causing 50% net cell kill) (DU-145; SRB) was 3.18 µM and the “TGI DU-145” value (DU-145; SRB) was 1.51E−06 Molar. For the same compound, the GI50 (LoVo-Dox) was 162 nM, the “TGI LOVO-DOX” value (LoVo-Dox) was 3.55E−07 Molar and the CC50 (LoVo-Dox) was 1.32 µM. The GI50 (IGROV-1; SRB) was 313 nM, the LC50 (concentration causing 50% net cell killing) (IGROV-1; SRB) was 3.05 µM and the “TGI IGROV” value (IGROV-1; SRB) was 6.11E−07 Molar.
